Key:
[1] = target: T1, rat EP2 receptor (Rattus norvegicus, UniProt Q62928); assay: Rat EP2 receptor binding assay (3H-PGE2 displacement, 293S cell membranes); conditions: displacement of 3H-prostaglandin E2, 293S membranes, 1 hour at 25° C.
T1 construct: The full-length rat EP2 receptor is made in accordance with the procedure in Nemoto et al; expressed in transfected cells
Text: (§1) The compounds of Formula I or II, which are useful in the methods of the present invention, bind to the prostaglandin E2 type 4 receptor (EP4 receptor). The full-length coding sequence for the human EP1 receptor is made in accordance with the procedure in Funk et al., Journal of Biological Chemistry, 1993, 268, 26767-26772. The full-length rat EP2 receptor is made in accordance with the procedure in Nemoto et al., Prostaglandins and other Lipid Mediators, 1997, 54, 713-725. The full-length coding sequence for the human EP3 receptor is made in accordance with the procedure in Regan et al., British Journal of Pharmacology, 1994, 112, 377-385. The full-length coding sequence for the rat EP4 receptor is made in accordance with the procedure in Sando et al., Biochem. Biophys. Res. Comm. 1994, 200,1329-1333. These full-length receptors are used to prepare 293S cells expressing the human EP1, rat EP2, human EP3 or rat EP4 receptors.
(§2) Human EP1, Rat EP2, Human EP3, Rat EP4 Receptor Binding Assay
(§3) The full-length receptors described above are used to prepare 293S cells expressing the EP1, EP2, EP3, and EP4 receptors.
(§4) 293S cells expressing either the human EP1, rat EP2, human EP3 or rat EP4 prostaglandin E2 receptors are generated according to methods known to those skilled in the art. Typically, PCR (polymerase chain reaction) primers corresponding to the 5′ and 3′ ends of the published full length receptor are made according to the well known methods disclosed above and are used in an RT-PCR (reverse transcriptase-polymerase chain reaction) reaction using the total RNA from human kidney (for EP1), rat kidney (for EP2), human lung (for EP3), or rat kidney (EP4) as a source. PCR products are cloned by the TA overhang method into pCR2.1 (Invitrogen Corporation, Carlsbad, Calif.) and identity of the cloned receptor is confirmed by DNA sequencing. For expression of the rat EP2 receptor, the confirmed cDNA is subcloned into the mammalian expression vector PURpCl, a vector generated by subcloning the selectable marker for puromycin resistance into the mammalian expression vector pCl (Promega, Madison, Wis.)
(§5) 293S cells are transfected with either the cloned human EP1 or EP3 receptor in pcDNA3 by electroporation. Stable cell lines expressing either the human EP1 or EP3 receptor are established following selection of transfected cells with G418. 293S cells are transfected with the cloned rat EP2 receptor in PURpCi by lipid mediated transfection. Stable cell lines expressing the rat EP2 receptor are established following selection of transfected cells with puromycin. 293S cells are transfected with the cloned rat EP4 receptor in pcDNA3 by lipid mediated transfection. Stable cell lines expressing the rat EP4 receptor are established following selection of transfected cells with Geneticin® (Invitrogen, Carlsbad, Calif.).
(§6) Clonal cell lines expressing the maximal number of receptors are chosen following a whole cell ^3H-PGE2 binding assay using unlabeled PGE2 as a competitor.
(§7) Membrane Preparation: All operations are performed at 4° C. Transfected cells expressing either prostaglandin E2 type 1, type 2, type 3, or type 4 (EP1, EP2, EP3, or EP4, respectively) receptors are harvested and suspended to 2 million cells per ml in Buffer A [50 mM Tris-HCl (pH 7.4), 10 mM MgCI2, 1 mM EDTA, 1 mM Pefabloc peptide, (Boehringer Mannheim Corp., Indianapolis, Ind.), 10 uM Phosporamidon peptide, (Sigma, St. Louis, Mo.), 1 uM pepstatin A peptide, (Sigma, St. Louis, Mo.), 10 uM elastatinal peptide, (Sigma, St. Louis, Mo.), 100 uM antipain peptide, (Sigma, St. Louis, Mo.)]. The cells are lysed by sonification with a Branson Sonifier (Branson Ultrasonics Corporation, Danbury, Conn.) in 2 fifteen-second bursts. Unlysed cells and debris are removed by centrifugation at 100 ×g for 10 min. Membranes are then harvested by centrifugation at 45,000×g for 30 minutes. […]

[2] = target: T2, human EP3 receptor (Homo sapiens, UniProt P43115); assay: Human EP3 receptor binding assay (3H-PGE2 displacement, 293S cell membranes); conditions: displacement of 3H-prostaglandin E2, 293S membranes, 1 hour at 25° C.
T2 construct: expressed in transfected cells
T2 sequence (P43115 1-390): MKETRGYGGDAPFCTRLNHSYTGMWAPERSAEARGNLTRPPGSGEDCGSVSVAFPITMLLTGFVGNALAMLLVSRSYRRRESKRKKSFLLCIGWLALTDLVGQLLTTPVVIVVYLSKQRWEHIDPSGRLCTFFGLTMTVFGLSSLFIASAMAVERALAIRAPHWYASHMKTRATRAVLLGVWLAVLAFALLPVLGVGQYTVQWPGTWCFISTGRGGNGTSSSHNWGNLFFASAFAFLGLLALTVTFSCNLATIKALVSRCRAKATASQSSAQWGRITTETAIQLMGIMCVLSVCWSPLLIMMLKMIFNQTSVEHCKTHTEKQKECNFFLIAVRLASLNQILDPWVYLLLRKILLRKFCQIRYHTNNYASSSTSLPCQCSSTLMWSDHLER
Text: as §1, §2, §3, §4, §5, §6, §7

T1 sequence (Q62928 whole entry): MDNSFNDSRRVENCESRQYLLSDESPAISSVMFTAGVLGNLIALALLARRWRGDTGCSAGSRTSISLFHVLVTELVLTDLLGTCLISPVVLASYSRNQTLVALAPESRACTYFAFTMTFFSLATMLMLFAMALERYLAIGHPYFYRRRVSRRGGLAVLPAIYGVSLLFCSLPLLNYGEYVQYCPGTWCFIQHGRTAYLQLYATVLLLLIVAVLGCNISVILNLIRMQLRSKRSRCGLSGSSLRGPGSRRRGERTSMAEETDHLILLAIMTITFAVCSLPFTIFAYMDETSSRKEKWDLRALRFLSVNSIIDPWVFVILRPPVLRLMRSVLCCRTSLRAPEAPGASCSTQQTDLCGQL

Compound	IC50 [1] [µM]	IC50 [2] [µM]
O=C(O)CCCCCCN1C(=O)CC[C@@H]1CC[C@@H](O)Cc1cccc(Cl)c1 [Example 1, 7-{2S-[4-(3-Chloro-phenyl)-3R-hydroxy-butyl]-5-oxo-pyrrolidin-1-yl}-heptanoic acid]	> 3.2	> 3.2
O=C1CC[C@H](CC[C@@H](O)Cc2cccc(C(F)(F)F)c2)N1CCCCCCc1nn[nH]n1 [Example 4, 5S-[3R-Hydroxy-4-(3-trifluoromethyl-phenyl)-butyl]-1-[6-(2H-tetrazol-5-yl)-hexyl]-pyrrolidin-2-one]	> 3.2	> 3.2
O=C1CCC(CCC(O)Cc2cccc(-c3ccccc3)c2)N1CCCCCCc1nn[nH]n1 (stereo not drawn) [Example 6, 5-(4-Biphenyl-3-yl-3-hydroxy-butyl)-1-[6-(2H-tetrazol-5-yl)-hexyl]-pyrrolidin-2-one]	3.05	> 3.2
O=C(O)CCCCCCN1C(=O)CCC1CCC(O)Cc1ccccc1 (stereo not drawn) [Example 9, 7-(2-(3-hydroxy-4-phenyl-butyl)-5-oxo-pyrrolidin-1-yl)-heptanoic acid]	> 3.2	> 3.2

The next molecules have a lower IC50 [1] than those just listed; values first:

IC50 [1] [µM]	IC50 [2] [µM]	Compound
2.76	> 3.2	O=C(O)CCCCCCN1C(=O)CC[C@@H]1CC[C@@H](O)Cc1cccc(C(F)(F)F)c1 [Example 2, 7-{2S-[3R-hydroxy-4-(3-trifluoromethyl-phenyl)-butyl]-5-oxo-pyrrolidin-1-yl}-heptanoic acid]
2.37	> 3.2	O=C1CC[C@H](CCC(O)Cc2cccc(Cl)c2)N1CCCCCCc1nn[nH]n1 (stereo partly drawn) [Example 3, 5S-[4-(3-Chloro-phenyl)-3-hydroxy-butyl]-1-[6-(2H-tetrazol-5-yl)-hexyl]-pyrrolidin-2-one]
